Data published in US8952024B2, “Herbicidal pyrimidone derivatives” (E I du Pont de Nemours and Company, priority 2009, dated 2015).

Experiments:
Type in all cases: in vivo
[1] = system: morningglory (Ipomoea spp.); test: Test A pre-/postemergence plant response; details: for Morningglory plant response rating: visual injury, 0 to 100 scale (0 no effect, 100 complete control), approx. ten days
In short: (§1)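 Injury was scored visually after roughly ten days against untreated controls, 0 = no effect, 100 = complete control. Test chemicals in a surfactant-containing non-phytotoxic solvent were sprayed either onto soil preemergence or onto one- to two-leaf, 2–10 cm plants postemergence.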

[2] = system: velvetleaf (Abutilon theophrasti); test: Test A pre-/postemergence plant response; details: for Velvetleaf plant response rating: visual injury, 0 to 100 scale (0 no effect, 100 complete control), approx. ten days
In short: as §1

[3] = system: wheat (Triticum aestivum); test: Test A pre-/postemergence plant response; details: for Wheat plant response rating: visual injury, 0 to 100 scale (0 no effect, 100 complete control), approx. ten days
In short: as §1

[4] = system: large crabgrass (Digitaria sanguinalis); test: Test A pre-/postemergence plant response; details: for Crabgrass, Large plant response rating: visual injury, 0 to 100 scale (0 no effect, 100 complete control), approx. ten days
In short: as §1

[5] = system: morningglory (Ipomoea coccinea); test: Test B pre-/postemergence plant response; details: Postemergence
In short: (§2)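 Response scores were assigned visually after 13 to 15 days in a greenhouse, comparing treated pots with controls on a 0–100 scale where 100 denotes complete control. Preemergence treatments went onto freshly seeded loam/sand soil; postemergence treatments onto plants 2 to 18 cm tall.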

[6] = system: downy bromegrass (Bromus tectorum); test: Test B pre-/postemergence plant response; details: for Bromegrass, Downy plant response rating (0 to 100 scale): 62 g ai/ha, postemergence, 0 is no effect, 100 is complete control; for Plant response rating, Bromegrass, Downy: Postemergence
In short: as §2

kochia (Kochia scoparia) = test: Test B pre-/postemergence plant response; details: Postemergence
In short: as §2

[7] = system: green foxtail (Setaria viridis); test: Test B pre-/postemergence plant response; details: Postemergence
In short: as §2

[8] = system: wheat (Triticum aestivum); test: Test B pre-/postemergence plant response; details: Postemergence
In short: as §2

[9] = system: pigweed (Amaranthus retroflexus); test: Test B pre-/postemergence plant response; details: Postemergence
In short: as §2

[10] = system: goosegrass (Eleusine indica); test: Test B pre-/postemergence plant response; details: Postemergence
In short: as §2

[11] = system: giant foxtail (Setaria faberii); test: Test B pre-/postemergence plant response; details: Postemergence
In short: as §2

[12] = system: cocklebur (Xanthium strumarium); test: Test B pre-/postemergence plant response; details: Postemergence
In short: as §2

[13] = Postemergence, 125 g ai/ha, 0 to 100 scale where 0 is no effect and 100 is complete control
[14] = Preemergence, 125 g ai/ha, 0 to 100 scale, 0 = no effect, 100 = complete control
[15] = Preemergence, 500 g ai/ha, 0 to 100 scale, 0 = no effect, 100 = complete control
[16] = 31 g ai/ha, 0 to 100 scale (0 no effect, 100 complete control)
[17] = 125 g ai/ha, scale 0 to 100 (0 no effect, 100 complete control)
[18] = 250 g ai/ha, scale 0 to 100 (0 no effect, 100 complete control), 13 to 15 days

SMILES: O=C1CCCC(O)=C1C(=O)c1cnc(C2CC2)n(C2CCCCC2)c1=O [Compound 160]
- Plant response rating, Morningglory [1, 13]: 100
- Morningglory plant response rating ([1]; Postemergence, 500 g ai/ha): 100
- Plant response rating, Morningglory [1, 14]: 70
- Plant response rating, Velvetleaf [2, 13]: 100
- Velvetleaf plant response rating ([2]; Postemergence, 500 g ai/ha): 100
- Plant response rating, Velvetleaf [2, 14]: 60
- Plant response rating, Velvetleaf [2, 15]: 30
- Plant response rating, Wheat [3, 13]: 0
- Wheat plant response rating ([3]; Postemergence, 500 g ai/ha): 50
- Plant response rating, Wheat [3, 14]: 0
- Plant response rating, Wheat [3, 15]: 20
- Plant response rating, Crabgrass, Large [4, 13]: 90
- Crabgrass, Large plant response rating ([4]; Postemergence, 500 g ai/ha): 90
- Plant response rating, Crabgrass, Large [4, 14]: 80
- Plant response rating, Crabgrass, Large [4, 15]: 100
- Plant response rating, Morningglory [5, 16]: 75
- Plant response rating, Morningglory [5, 17]: 100
- Plant response rating, Morningglory [5, 18]: 100
- Bromegrass, Downy plant response rating (0 to 100 scale) ([6]; 13 to 15 days): 5
- Plant response rating, Bromegrass, Downy [6, 16]: 0
- Plant response rating, Bromegrass, Downy [6, 17]: 50
- Plant response rating, Bromegrass, Downy [6, 18]: 55
- Plant response rating, Kochia (kochia (Kochia scoparia); [16]): 90
- Plant response rating, Kochia (kochia (Kochia scoparia); [17]): 100
- Plant response rating, Kochia (kochia (Kochia scoparia); [18]): 100
- Plant response rating, Foxtail, Green [7, 16]: 55
- Plant response rating, Foxtail, Green [7, 17]: 70
- Plant response rating, Foxtail, Green [7, 18]: 98
- Plant response rating, Wheat [8, 16]: 10
- Plant response rating, Wheat [8, 17]: 40
- Plant response rating, Wheat [8, 18]: 45
- Plant response rating, Pigweed [9, 16]: 90
- Plant response rating, Pigweed [9, 17]: 100
- Plant response rating, Pigweed [9, 18]: 100
- Plant response rating, Goosegrass [10, 16]: 80
- Plant response rating, Goosegrass [10, 17]: 90
- Plant response rating, Goosegrass [10, 18]: 90
- Plant response rating, Foxtail, Giant [11, 16]: 70
- Plant response rating, Foxtail, Giant [11, 17]: 75
- Plant response rating, Foxtail, Giant [11, 18]: 85
- Plant response rating, Cocklebur [12, 16]: 98
- Plant response rating, Cocklebur [12, 17]: 100
- Plant response rating, Cocklebur [12, 18]: 100

SMILES: Cc1ccc(-n2c(-c3cc(F)cc(F)c3)ncc(C(=O)C3=C(O)CCCC3=O)c2=O)cc1 [Compound 162]
- Plant response rating, Morningglory [1, 13]: 100
- Morningglory plant response rating ([1]; Postemergence, 500 g ai/ha): 100
- Plant response rating, Morningglory [1, 14]: 0
- Plant response rating, Morningglory [1, 15]: 80
- Plant response rating, Velvetleaf [2, 13]: 100
- Velvetleaf plant response rating ([2]; Postemergence, 500 g ai/ha): 100
- Plant response rating, Velvetleaf [2, 14]: 60
- Plant response rating, Velvetleaf [2, 15]: 100
- Plant response rating, Wheat [3, 13]: 30
- Wheat plant response rating ([3]; Postemergence, 500 g ai/ha): 50
- Plant response rating, Wheat [3, 14]: 0
- Plant response rating, Wheat [3, 15]: 50
- Plant response rating, Crabgrass, Large [4, 13]: 80
- Crabgrass, Large plant response rating ([4]; Postemergence, 500 g ai/ha): 100
- Plant response rating, Crabgrass, Large [4, 14]: 90
- Plant response rating, Crabgrass, Large [4, 15]: 100
- Plant response rating, Morningglory [5, 16]: 75
- Plant response rating, Morningglory [5, 17]: 90
- Plant response rating, Morningglory [5, 18]: 100
- Bromegrass, Downy plant response rating (0 to 100 scale) ([6]; 13 to 15 days): 30
- Plant response rating, Bromegrass, Downy [6, 16]: 20
- Plant response rating, Bromegrass, Downy [6, 17]: 45
- Plant response rating, Bromegrass, Downy [6, 18]: 50
- Plant response rating, Kochia (kochia (Kochia scoparia); [16]): 20
- Plant response rating, Kochia (kochia (Kochia scoparia); [17]): 75
- Plant response rating, Kochia (kochia (Kochia scoparia); [18]): 80
- Plant response rating, Foxtail, Green [7, 16]: 98
- Plant response rating, Foxtail, Green [7, 17]: 98
- Plant response rating, Foxtail, Green [7, 18]: 100
- Plant response rating, Wheat [8, 16]: 10
- Plant response rating, Wheat [8, 17]: 35
- Plant response rating, Wheat [8, 18]: 40
- Plant response rating, Pigweed [9, 16]: 100
- Plant response rating, Pigweed [9, 17]: 100
- Plant response rating, Pigweed [9, 18]: 100
- Plant response rating, Goosegrass [10, 16]: 60
- Plant response rating, Goosegrass [10, 17]: 90
- Plant response rating, Goosegrass [10, 18]: 98
- Plant response rating, Foxtail, Giant [11, 16]: 85
- Plant response rating, Foxtail, Giant [11, 17]: 98
- Plant response rating, Foxtail, Giant [11, 18]: 98
- Plant response rating, Cocklebur [12, 16]: 100
- Plant response rating, Cocklebur [12, 17]: 100
- Plant response rating, Cocklebur [12, 18]: 100
